Measured values: patent US5096693A, “Stable stannous chloride composition for labeling with radioactive technetium” (Nihon Medi-Physics Co., Ltd., priority 1984, dated 1992)

How the values were obtained:
[1] = system: mice; experiment: Acute toxicity with intravenous administration, mice; assay type: in vivo, ICR strain mice; conditions: 14 days
Method: (§1) In this Example, the acute toxicity with intravenous administration of the non-radioactive labeling composition to rats or mice was evaluated. Namely, sterilized, pyrogen-free and oxygen-free water (1.0 ml) was added to a vial containing "FDSn-RBC" to make a stannous chloride solution (20 μmol/ml, […]). The resultant solution was intravenously administered to male and female ICR strain mice and S.D. strain rats. After 14 days, the accumulative death percentage was determined, and the lethal dose 50 (LD50) was calculated by the Litchfield-Wilcoxon's method.

[2] = system: rats; experiment: Acute toxicity with intravenous administration, rats; assay type: in vivo, S.D. strain rats; conditions: 14 days
Method: as §1
The dose of the non-radioactive labeling composition to human beings may be 9.48 μg/kg (with the assumption that a total amount of one vial of FDSn-COL is administered to a person of 60 kilograms in bodyweight) as stannous chloride at the maximum in case of using for preparation of ^99m Tc-labeled tin colloid, and 31.95 μg/kg (corresponding to 20 μg/kg of stannous ion) in case of using for labeling of red blood cells in a human body. When these doses are compared with the LD50 values of female rats which are considered to be the most sensitive among the tested animals, said dose is about 1/1790 that of the LD50 value in case of preparation of ^99m Tc-labeled tin colloid and about 1/530 that of the LD50 value in case of labeling of red blood cells in a human being.

[Cl][Sn][Cl] [stannous chloride]
LD50 ([1]; female mice): 28 ± 3 mg/kg | LD50 ([1]; male mice): 33 ± 3 mg/kg | LD50 ([2]; female rats): 17 ± 2 mg/kg | LD50 ([2]; male rats): 18 ± 3 mg/kg
